Experimental findings from patent publication US8431563B2 (priority 2010, dated 2013) are described below.

Structures can show the parent of a compound that is named as a salt.

In the first assay the target is T1, interaction between glucokinase (GK) and glucokinase regulatory protein (GKRP) (Homo sapiens, UniProt Q14397).
T1 sequence (Q14397 1-625): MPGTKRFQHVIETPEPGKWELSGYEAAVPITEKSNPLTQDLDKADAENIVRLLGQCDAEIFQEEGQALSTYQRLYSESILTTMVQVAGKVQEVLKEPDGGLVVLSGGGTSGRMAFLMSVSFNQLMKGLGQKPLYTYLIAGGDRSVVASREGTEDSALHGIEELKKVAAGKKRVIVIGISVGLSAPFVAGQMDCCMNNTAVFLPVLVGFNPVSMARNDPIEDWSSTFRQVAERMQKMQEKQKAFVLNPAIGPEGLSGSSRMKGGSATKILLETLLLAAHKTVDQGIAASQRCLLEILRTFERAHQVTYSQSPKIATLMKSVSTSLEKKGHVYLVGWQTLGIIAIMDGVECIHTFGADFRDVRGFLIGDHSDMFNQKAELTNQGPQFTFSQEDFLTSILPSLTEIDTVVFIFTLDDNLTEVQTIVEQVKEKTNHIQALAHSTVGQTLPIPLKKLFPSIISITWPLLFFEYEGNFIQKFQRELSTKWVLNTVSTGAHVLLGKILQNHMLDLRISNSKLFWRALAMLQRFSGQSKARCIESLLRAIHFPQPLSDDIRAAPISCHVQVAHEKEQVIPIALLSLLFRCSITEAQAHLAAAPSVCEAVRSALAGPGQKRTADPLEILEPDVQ
Description: biochemical. The class given is binding. The settings on record: GK-GKRP IC50 (Binding), avi-tagged GKRP, GK-fluorescein, AlphaScreen beads. How it is done:
GK-GKRP Binding Assay Protocol
This assay is used to directly measure the interaction between glucokinase (GK) and glucokinase regulatory protein (GKRP). Begin by preparing the following solutions. Assay Buffer: 20 mM Tris, pH 7.5/0.05% BSA/1 mM DTT/1 μM sorbitol-6-phosphate. […] Combine the following reagents in a white 96-well half area plate. Pipette 14 μl of the diluted avi-tagged GKRP into each well. Add 1 μl of compound to be tested and incubate at room temperature for 20 minutes. After 20 minutes, add 5 μl of assay buffer containing 6 nM GK-fluorescein. […] Incubate in a dark room for 2 hours at room temperature. After 2 hours read the plate using an Envision plate reader (Perkin Elmer, Waltham Mass.).
Take `NCC#Cc1cc(C(O)(C(F)(F)F)C(F)(F)F)ccc1N1CCN(S(=O)(=O)c2cccs2)CC1` [Example 159, 2-(3-(3-amino-1-propyn-1-yl)-4-(4-(2-thiophenylsulfonyl)-1-piperazinyl)phenyl)-1,1,1,3,3,3-hexafluoro-2-propanol trifluoroacetate]: the IC50 was 1920 nM.

Turning to `CC(O)(c1ccc(N2CCN(S(=O)(=O)c3cccs3)C[C@@H]2CNC2CC2)cc1)C(F)(F)F` (mixture of isomers) [Example 199, 2-(4-((2S)-2-((cyclopropylamino)methyl)-4-(2-thiophenylsulfonyl)-1-piperazinyl)phenyl)-1,1,1-trifluoro-2-propanol], the IC50 stood at 713 nM.

The assay is the same for the next values; noted with them: avi-tagged GKRP, GK-fluorescein, AlphaScreen beads; read-out: GK-GKRP IC50 (Binding).
For the compound `CC(O)(c1ccc(N2CCN(S(=O)(=O)c3cccs3)C[C@@H]2CN2[C@@H]3COC[C@H]2CC(=O)C3)cc1)C(F)(F)F` (single isomer, unassigned) [Example 106 Peak#1], the IC50 was 52 nM.

As for `CC(c1ccccc1)N(C[C@H]1CN(S(=O)(=O)c2cccs2)CCN1c1ccc(C(C)(O)C(F)(F)F)cc1)S(C)(=O)=O` (mixture of isomers) [Example 222, N-(1-phenylethyl)-N-(((2R)-4-(2-thiophenylsulfonyl)-1-(4-(2,2,2-trifluoro-1-hydroxy-1-methylethyl)phenyl)-2-piperazinyl)methyl)methanesulfonamide], the IC50 was found to be 671 nM.

As for `CN(Cc1cn(C)cn1)C[C@H]1CN(S(=O)(=O)c2cccs2)CCN1c1ccc(C(C)(O)C(F)(F)F)cc1` (mixture of isomers) [Example 121, 1,1,1-trifluoro-2-(4-((2S)-2-((methyl((1-methyl-1H-imidazol-4-yl)methyl)amino)methyl)-4-(2-thiophenylsulfonyl)-1-piperazinyl)phenyl)-2-propanol], the IC50 is 521 nM.

Regarding `COc1ccc(CC2CN(S(=O)(=O)c3cccs3)CCN2c2ccc(C(O)(C(F)(F)F)C(F)(F)F)cc2)cc1` (racemic) [Example 175, 1,1,1,3,3,3-hexafluoro-2-(4-(2-(4-methoxybenzyl)-4-(thiophen-2-ylsulfonyl)piperazin-1-yl)phenyl)-2-propanol], the IC50 stood at 2870 nM.

Take `CC(O)(c1ccc(N2CCN(S(=O)(=O)c3cccs3)C[C@@H]2CN2CCNC(=O)C2)cc1)C(F)(F)F` (mixture of isomers) [Example 179, 4-(((2S)-4-(2-thiophensulfonyl)-1-(4-(2,2,2-trifluoro-1-hydroxy-1-methylethyl)phenyl)-2-piperazinyl)methyl)-2-piperazinone]: the IC50 amounted to 542 nM.

For `CC(C)C(O)C#Cc1cc(C(O)(C(F)(F)F)C(F)(F)F)ccc1N1CCN(S(=O)(=O)c2cccs2)CC1` (racemic) [Example 156, 4-methyl-1-(2-(4-(2-thiophenylsulfonyl)-1-piperazinyl)-5-(2,2,2-trifluoro-1-hydroxy-1-(trifluoromethyl)ethyl)phenyl)-1-pentyn-3-ol], the IC50 came out at 2860 nM.

In the case of `COC(C#Cc1cc(C(O)(C(F)(F)F)C(F)(F)F)ccc1N1CCN(S(=O)(=O)c2cccs2)CC1)C(C)C` (racemic) [Example 157, 1,1,1,3,3,3-hexafluoro-2-(3-(3-methoxy-4-methyl-1-pentyn-1-yl)-4-(4-(2-thiophenylsulfonyl)-1-piperazinyl)phenyl)-2-propanol], the IC50 stood at 658 nM.

`C[C@H]1CN(S(=O)(=O)c2cnc(N)s2)CCN1c1ncc(C(O)(C(F)(F)F)C(F)(F)F)cn1` [Example 147, 2-(2-((2S)-4-((2-amino-1,3-thiazol-5-yl)sulfonyl)-2-methyl-1-piperazinyl)-5-pyrimidinyl)-1,1,1,3,3,3-hexafluoro-2-propanol]: the IC50 was determined as 998 nM.

`O=S(=O)(c1cccs1)N1CCN(c2ccc(C(O)(C(F)(F)F)C(F)(F)F)cc2)C(Cc2ccc(O)cc2)C1` (racemic) [Example 177, 4-((1-(4-(1,1,1,3,3,3-hexafluoro-2-hydroxypropan-2-yl)phenyl)-4-(thiophen-2-ylsulfonyl)piperazin-2-yl)methyl)phenol]: the IC50 came out at 786 nM.

Take `COc1cccc(CC2CN(S(=O)(=O)c3cccs3)CCN2c2ccc(C(O)(C(F)(F)F)C(F)(F)F)cc2)c1` (racemic) [Example 173, 1,1,1,3,3,3-hexafluoro-2-(4-(2-(3-methoxybenzyl)-4-(thiophen-2-ylsulfonyl)piperazin-1-yl)phenyl)-2-propanol]: the IC50 is 542 nM.

On to `CC(O)(c1ccc(N2CCN(S(=O)(=O)c3cccs3)C[C@@H]2C[S+]([O-])c2cccc(F)c2)cc1)C(F)(F)F` (single isomer, unassigned) [Example 189 Peak#3], for which the IC50 was 535 nM.

On to `C[C@H]1COCCN1C[C@H]1CN(S(=O)(=O)c2cccs2)CCN1c1ccc(C(O)(C(F)(F)F)C(F)(F)F)cc1` [Example 132, 1,1,1,3,3,3-hexafluoro-2-(4-((2S)-2-(((3S)-3-methyl-4-morpholinyl)methyl)-4-(2-thiophenylsulfonyl)-1-piperazinyl)phenyl)-2-propanol], for which the IC50 stood at 6 nM.

Consider `CCC(O)C#Cc1cc(C(O)(C(F)(F)F)C(F)(F)F)ccc1N1CCC(S(=O)(=O)c2ccccc2)CC1` (racemic) [Example 162, 1-(2-(4-(phenylsulfonyl)-1-piperidinyl)-5-(2,2,2-trifluoro-1-hydroxy-1-(trifluoromethyl)ethyl)phenyl)-1-pentyn-3-ol], for which the IC50 came to 5180 nM.

With `CC(C)(C)OC(=O)NCC#Cc1cc(C(O)(C(F)(F)F)C(F)(F)F)ccc1N1CCN(S(=O)(=O)c2cccs2)CC1` [Example 158, tert-butyl (3-(2-(4-(2-thiophenylsulfonyl)-1-piperazinyl)-5-(2,2,2-trifluoro-1-hydroxy-1-(trifluoromethyl)ethyl)phenyl)-2-propyn-1-yl)carbamate], the IC50 came to 695 nM.

Turning to `CC(O)(c1ccc(N2CCN(S(=O)(=O)c3cccs3)C[C@@H]2CN(C2CCC2)S(=O)(=O)c2cccnc2)cc1)C(F)(F)F` (mixture of isomers) [Example 213, N-cyclobutyl-N-(((2R)-4-(2-thiophenylsulfonyl)-1-(4-(2,2,2-trifluoro-1-hydroxy-1-methylethyl)phenyl)-2-piperazinyl)methyl)-3-pyridinesulfonamide], the IC50 is 928 nM.

Consider `CC(O)(c1ccc(N2CCN(S(=O)(=O)c3cccs3)C[C@@H]2C[S+]([O-])c2cccc(F)c2)cc1)C(F)(F)F` (single isomer, unassigned) [Example 189 Peak#2], for which the IC50 was found to be 717 nM.

As for `CCC(O)C#Cc1cc(C(O)(C(F)(F)F)C(F)(F)F)ccc1N1CCN(S(=O)(=O)c2cccs2)CC1` (racemic) [Example 154, 1-(2-(4-(2-thiophenylsulfonyl)-1-piperazinyl)-5-(2,2,2-trifluoro-1-hydroxy-1-(trifluoromethyl)ethyl)phenyl)-1-pentyn-3-ol], the IC50 turned out to be 1060 nM.

The target of another assay is T2, GKRP (Glucokinase Regulatory Protein) with human His-hepatic GK (Homo sapiens, UniProt Q14397).
T2 sequence (Q14397 1-625): T1 sequence (Q14397 1-625)
Description: biochemical. The settings on record: 13C-glucose-6-phosphate formation; 280 nM GKRP (10×), 30 nM GK (5×); read-out: GK-GKRP EC50 (LC MS/MS-2). How it is done:
GKRP LC MS/MS-2 Biochemical Assay
This assay is used to directly measure the formation of ^13C-glucose-6-phosphate from ^13C-glucose by LC MS/MS. Begin by preparing the following solutions: Compound Buffer (CB): 50 mM Tris, pH 7.5/4 mM MgCl2/6% DMSO/fresh 10 mM DTT from 1M frozen stock. Enzyme Buffer (EB): 50 mM Tris, pH 7.5/4 mM MgCl2/6% DMSO/fresh 0.1% BSA/fresh 0.01% Brij-35 (10% BSA and 1% Brij-35 stock). GK (Glucokinase) Working Stock (5×): Dilute human His-hepatic GK to 30 nM in EB buffer. […] After 30 minutes add 10 μl of GK Working Stock (5×). Re-seal the plate and incubate for another 30 minutes at room temperature while mixing. After the second 30 minutes, stop the reaction by the addition of 50 μl of 100% acetonitrile, seal, and mix for 5-10 minutes. Run 10 μl of this sample through the LC MS/MS (API 3200, Applied Biosystems, Carlsbad, Calif.).
In the case of `CC(O)(c1ccc(N2CCN(S(=O)(=O)c3cccs3)C[C@@H]2CN2[C@@H]3COC[C@H]2CC(=O)C3)cc1)C(F)(F)F` (single isomer, unassigned) [Example 106 Peak#1], the EC50 was 88 nM.

`C[C@H]1COCCN1C[C@H]1CN(S(=O)(=O)c2cccs2)CCN1c1ccc(C(O)(CO)C(F)(F)F)cc1` (mixture of isomers) [Example 83, 3,3,3-trifluoro-2-(4-((2S)-2-(((3S)-3-methyl-4-morpholinyl)methyl)-4-(2-thiophenylsulfonyl)-1-piperazinyl)phenyl)-1,2-propanediol]: the EC50 worked out at 19 nM.

`CC(C)C1C(=O)NCCN1C[C@H]1CN(S(=O)(=O)c2ccc(N)s2)CCN1c1ncc(C(O)(C(F)(F)F)C(F)(F)F)cn1` (single isomer, unassigned) [Example 184 Peak #2]: the EC50 came to 25 nM.
